Laboratory results: patent US8703768B2, “Nitrogen containing heteroaryl compounds” (Hoffmann-La Roche Inc., priority 2010, dated 2014)

Biological target: human PDE10A (Homo sapiens (Human), UniProt Q9Y233)
Assay: human PDE10A full length Scintillation Proximity Assay (SPA)
Type: biochemical
Conditions: 50 nM cGMP and 50 nM [3H]-cGMP, 20 minutes at room temperature; read-out: PDE10A inhibition IC50
Description: The following test was carried out in order to determine the activity of the compounds of the present invention.
The human PDE10A full length assay was performed in 96-well micro titer plates. […] Non-specific activity was tested without the enzyme. The reaction was initiated by the addition of the substrate solution (cGMP and [^3H]-cGMP) and allowed to progress for 20 minutes at room temperature. The reaction was terminated by adding 25 μl of YSi-SPA scintillation beads (GE Healthcare, cat. # RPNQ0150) in 18 mM zinc sulphate solution (stop reagent). After 1 h under shaking, the plate was centrifuged one minute at 170 g to allow beads to settle. Afterwards, radioactive counts were measured on a Perkin Elmer TopCount Scintillation plate reader.

Chain of human PDE10A (Q9Y233 other isoform, or with tags, fused parts or gaps): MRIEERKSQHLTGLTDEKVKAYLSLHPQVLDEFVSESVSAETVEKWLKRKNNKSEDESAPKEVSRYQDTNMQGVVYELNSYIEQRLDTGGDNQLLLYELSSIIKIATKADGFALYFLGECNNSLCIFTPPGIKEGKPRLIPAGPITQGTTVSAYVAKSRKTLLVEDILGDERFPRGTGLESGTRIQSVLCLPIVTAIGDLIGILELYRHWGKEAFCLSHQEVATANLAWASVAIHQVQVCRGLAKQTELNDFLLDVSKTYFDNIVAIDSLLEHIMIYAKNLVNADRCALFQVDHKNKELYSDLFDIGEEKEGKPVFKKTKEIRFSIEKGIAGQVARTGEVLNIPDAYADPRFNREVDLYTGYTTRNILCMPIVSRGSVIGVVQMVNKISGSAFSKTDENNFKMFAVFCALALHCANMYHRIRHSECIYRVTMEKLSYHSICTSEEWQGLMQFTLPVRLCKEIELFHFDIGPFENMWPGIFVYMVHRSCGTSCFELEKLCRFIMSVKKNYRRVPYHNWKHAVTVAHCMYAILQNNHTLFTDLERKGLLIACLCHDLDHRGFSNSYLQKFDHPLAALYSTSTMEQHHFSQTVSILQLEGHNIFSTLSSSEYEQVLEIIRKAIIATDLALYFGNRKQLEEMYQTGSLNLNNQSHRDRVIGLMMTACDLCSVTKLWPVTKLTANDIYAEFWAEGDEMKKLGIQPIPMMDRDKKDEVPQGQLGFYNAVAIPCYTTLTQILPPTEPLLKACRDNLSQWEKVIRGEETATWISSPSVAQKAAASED

SMILES: CN(C)C(=O)c1ccncc1NC(=O)c1nc(C2CC2)ccc1Nc1cncnc1 [Example 23, 6-Cyclopropyl-3-(pyrimidin-5-ylamino)-pyridine-2-carboxylic acid (4-dimethylcarbamoyl-pyridin-3-yl)-amide]
- IC50: 87.8 nM

SMILES: Cn1ncc(NC(=O)c2nc(C3CC3)cnc2Nc2cncnc2)c1C(=O)N1CC(F)(F)C1 [Example 143, 6-Cyclopropyl-3-(pyrimidin-5-ylamino)-pyrazine-2-carboxylic acid [5-(3,3-difluoro-azetidine-1-carbonyl)-1-methyl-1H-pyrazol-4-yl]-amide]
- IC50: 23.3 nM

SMILES: O=C(NC1COC1)c1ccncc1NC(=O)c1nc(C2CC2)cnc1Nc1cncnc1 [Example 106, 6-Cyclopropyl-3-(pyrimidin-5-ylamino)-pyrazine-2-carboxylic acid [4-(oxetan-3-ylcarbamoyl)-pyridin-3-yl]-amide]
- IC50: 2.6 nM

SMILES: COC(C)(C)CNC(=O)c1ccncc1NC(=O)c1nc(C2CC2)cnc1Nc1cncnc1 [Example 113, 6-Cyclopropyl-3-(pyrimidin-5-ylamino)-pyrazine-2-carboxylic acid [4-(2-methoxy-2-methyl-propylcarbamoyl)-pyridin-3-yl]-amide]
- IC50: 1.6 nM

SMILES: CCn1cc(NC(=O)c2nc(C3CC3)cnc2Nc2cncnc2)c(C(=O)NCC2CCCO2)n1 (stereo not drawn) [Example 108, 6-Cyclopropyl-N-(1-ethyl-3-((tetrahydrofuran-2-yl)methylcarbamoyl)-1H-pyrazol-4-yl)-3-(pyrimidin-5-ylamino)pyrazine-2-carboxamide]
- IC50: 39.7 nM

SMILES: CNC(=O)c1nn(C)cc1NC(=O)c1nc(NCCOC)ncc1Nc1cncnc1 [Example 126, 2-(2-Methoxy-ethylamino)-5-(pyrimidin-5-ylamino)-pyrimidine-4-carboxylic acid (1-methyl-3-methylcarbamoyl-1H-pyrazol-4-yl)-amide]
- IC50: 122 nM

SMILES: CN1CC(NC(=O)c2c(NC(=O)c3nc(C4CC4)cnc3Nc3cncnc3)cnn2C)C1 [Example 315, 6-Cyclopropyl-3-(pyrimidin-5-ylamino)-pyrazine-2-carboxylic acid [1-methyl-5-(1-methyl-azetidin-3-ylcarbamoyl)-1H-pyrazol-4-yl]-amide]
- IC50: 11.1 nM

SMILES: CC1COCCN1C(=O)c1ncccc1NC(=O)c1nc(C2CC2)cnc1Nc1cncnc1 (stereo not drawn) [Example 254, 6-Cyclopropyl-3-(pyrimidin-5-ylamino)-pyrazine-2-carboxylic acid [2-(3-methyl-morpholine-4-carbonyl)-pyridin-3-yl]-amide]
- IC50: 31.7 nM

SMILES: CN(CC(C)(C)O)C(=O)c1c(NC(=O)c2nc(C3CC3)cnc2Nc2cncnc2)cnn1C [Example 153, 6-Cyclopropyl-3-(pyrimidin-5-ylamino)-pyrazine-2-carboxylic acid {5-[(2-hydroxy-2-methyl-propyl)-methyl-carbamoyl]-1-methyl-1H-pyrazol-4-yl}-amide]
- IC50: 16.1 nM

SMILES: Cn1cc(NC(=O)c2nc(C3CC3)ccc2Nc2cncnc2)c(C(=O)NCC(C)(C)O)n1 [Example 43, 6-Cyclopropyl-3-(pyrimidin-5-ylamino)-pyridine-2-carboxylic acid [3-(2-hydroxy-2-methyl-propylcarbamoyl)-1-methyl-1H-pyrazol-4-yl]-amide]
- IC50: 3.1 nM

SMILES: CNC(=O)c1ncncc1NC(=O)c1nc(C2CC2)cnc1Nc1cncnc1 [Example 218, 5-{[6-Cyclopropyl-3-(pyrimidin-5-ylamino)-pyrazine-2-carbonyl]-amino}-pyrimidine-4-carboxylic acid methylamide]
- IC50: 5.2 nM

SMILES: Cn1ncc(NC(=O)c2nc(C3CC3)c(C3CCCO3)nc2Nc2cncnc2)c1C(=O)NCCF (stereo not drawn) [Example 162, 6-Cyclopropyl-3-(pyrimidin-5-ylamino)-5-(tetrahydro-furan-2-yl)-pyrazine-2-carboxylic acid [5-(2-fluoro-ethylcarbamoyl)-1-methyl-1H-pyrazol-4-yl]-amide]
- IC50: 124 nM

SMILES: Cn1ncc(NC(=O)c2nc(C3CC3)cnc2Nc2cncnc2)c1C(=O)NC1CCN(C(=O)OC(C)(C)C)C1 (stereo not drawn) [Example 236, 3-[(4-{[6-Cyclopropyl-3-(pyrimidin-5-ylamino)-pyrazine-2-carbonyl]-amino}-2-methyl-2H-pyrazole-3-carbonyl)-amino]-pyrrolidine-1-carboxylic acid tert-butyl ester]
- IC50: 6.8 nM

SMILES: O=C(Nc1cc(F)c(F)cc1C(=O)N1CCC1)c1nc(C2CC2)cnc1Nc1cncnc1 [Example 291, 6-Cyclopropyl-3-(pyrimidin-5-ylamino)-pyrazine-2-carboxylic acid [2-(azetidine-1-carbonyl)-4,5-difluoro-phenyl]-amide]
- IC50: 31.2 nM

SMILES: CCc1ccc(NC(=O)c2nc(C3CC3)cnc2Nc2cncnc2)c(C(=O)NCC(C)(C)O)n1 [Example 181, 6-Cyclopropyl-3-(pyrimidin-5-ylamino)-pyrazine-2-carboxylic acid [6-ethyl-2-(2-hydroxy-2-methyl-propylcarbamoyl)-pyridin-3-yl]-amide]
- IC50: 0.4 nM

SMILES: O=C(Nc1cncnc1C(=O)N1CCC1)c1nc(C2CC2)cnc1Nc1cncnc1 [Example 211, 6-Cyclopropyl-3-(pyrimidin-5-ylamino)-pyrazine-2-carboxylic acid [4-(azetidine-1-carbonyl)-pyrimidin-5-yl]-amide]
- IC50: 2650 nM

SMILES: CNC(=O)c1c(NC(=O)c2nc(C3CC3)cnc2Nc2cncnc2)cnn1CC1CCOC1 (stereo not drawn) [Example 286, 6-Cyclopropyl-3-(pyrimidin-5-ylamino)-pyrazine-2-carboxylic acid [5-methylcarbamoyl-1-(tetrahydro-furan-3-ylmethyl)-1H-pyrazol-4-yl]-amide]
- IC50: 43.2 nM

SMILES: CC1CCC(C)N1C(=O)c1ccncc1NC(=O)c1nc(C2CC2)ccc1Nc1cncnc1 (stereo not drawn) [Example 59, 6-Cyclopropyl-3-(pyrimidin-5-ylamino)-pyridine-2-carboxylic acid [4-(2,5-dimethyl-pyrrolidine-1-carbonyl)-pyridin-3-yl]-amide]
- IC50: 84.4 nM

SMILES: CNC(=O)c1c(NC(=O)c2nc(C(C)C)cnc2Nc2cncnc2)cnn1C [Example 131, 6-Isopropyl-3-(pyrimidin-5-ylamino)-pyrazine-2-carboxylic acid (1-methyl-5-methylcarbamoyl-1H-pyrazol-4-yl)-amide]
- IC50: 1.4 nM

SMILES: CN(C(=O)c1c(NC(=O)c2nc(C3CC3)cnc2Nc2cncnc2)cnn1C)C1CCOCC1 [Example 231, 6-Cyclopropyl-3-(pyrimidin-5-ylamino)-pyrazine-2-carboxylic acid {1-methyl-5-[methyl-(tetrahydro-pyran-4-yl)-carbamoyl]-1H-pyrazol-4-yl}-amide]
- IC50: 41.7 nM

SMILES: O=C(Nc1cncnc1C(=O)N1CCCCC1)c1nc(C2CC2)cnc1Nc1cncnc1 [Example 212, 6-Cyclopropyl-3-(pyrimidin-5-ylamino)-pyrazine-2-carboxylic acid [4-(piperidine-1-carbonyl)-pyrimidin-5-yl]-amide]
- IC50: 81.2 nM

SMILES: CCNC(=O)c1c(NC(=O)c2nc(C3CC3)cnc2Nc2cncnc2)sc2c1CCCC2 [Example 185, 6-Cyclopropyl-3-(pyrimidin-5-ylamino)-pyrazine-2-carboxylic acid (3-ethylcarbamoyl-4,5,6,7-tetrahydro-benzo[b]thiophen-2-yl)-amide]
- IC50: 2690 nM

SMILES: O=C(NC1CC1)c1ccsc1NC(=O)c1nc(C2CC2)ccc1Nc1cncnc1 [Example 89, 6-Cyclopropyl-3-(pyrimidin-5-ylamino)-pyridine-2-carboxylic acid (3-cyclopropylcarbamoyl-thiophen-2-yl)-amide]
- IC50: 0.5 nM

SMILES: O=C(NC1CCC1)c1ccncc1NC(=O)c1nc(C2CC2)ccc1Nc1cncnc1 [Example 58, 6-Cyclopropyl-3-(pyrimidin-5-ylamino)-pyridine-2-carboxylic acid (4-cyclobutylcarbamoyl-pyridin-3-yl)-amide]
- IC50: 1.1 nM

SMILES: CC1CCCN1C(=O)c1nn(C)cc1NC(=O)c1nc(C2CC2)ccc1Nc1cncnc1 (stereo not drawn) [Example 27, 6-Cyclopropyl-3-(pyrimidin-5-ylamino)-pyridine-2-carboxylic acid [1-methyl-3-(2-methyl-pyrrolidine-1-carbonyl)-1H-pyrazol-4-yl]-amide]
- IC50: 11.4 nM

SMILES: CNC(=O)c1c(C)cccc1NC(=O)c1nc(C2CC2)cnc1Nc1cncnc1 [Example 224, 6-Cyclopropyl-3-(pyrimidin-5-ylamino)-pyrazine-2-carboxylic acid (3-methyl-2-methylcarbamoyl-phenyl)-amide]
- IC50: 18.1 nM

SMILES: COC1CCN(C(=O)c2ccncc2NC(=O)c2nc(C3CC3)ccc2Nc2cncnc2)C1 (stereo not drawn) [Example 62, 6-Cyclopropyl-3-(pyrimidin-5-ylamino)-pyridine-2-carboxylic acid [4-(3-methoxy-pyrrolidine-1-carbonyl)-pyridin-3-yl]-amide]
- IC50: 93.9 nM

SMILES: Cn1ncc(NC(=O)c2nc(C3CC3)cnc2Nc2cncnc2)c1C(=O)NC1(C)COC1 [Example 136, 6-Cyclopropyl-3-(pyrimidin-5-ylamino)-pyrazine-2-carboxylic acid [1-methyl-5-(3-methyl-oxetan-3-ylcarbamoyl)-1H-pyrazol-4-yl]-amide]
- IC50: 3.6 nM

SMILES: CN(C)C(=O)c1c(F)cccc1NC(=O)c1nc(C2CC2)cnc1Nc1cncnc1 [Example 308, 6-Cyclopropyl-3-(pyrimidin-5-ylamino)-pyrazine-2-carboxylic acid (2-dimethylcarbamoyl-3-fluoro-phenyl)-amide]
- IC50: 0.9 nM

SMILES: CC(C)Cn1ncc(NC(=O)c2nc(C3CC3)cnc2Nc2cncnc2)c1C(=O)NCC(C)(C)O [Example 134, 6-Cyclopropyl-3-(pyrimidin-5-ylamino)-pyrazine-2-carboxylic acid [5-(2-hydroxy-2-methyl-propylcarbamoyl)-1-isobutyl-1H-pyrazol-4-yl]-amide]
- IC50: 21.5 nM
